The values below come from ChEMBL document CHEMBL4725338, “Discovery of novel histone lysine methyltransferase G9a/GLP (EHMT2/1) inhibitors: Design, synthesis, and structure-activity relationships of 2,4-diamino-6-methylpyrimidines” (Bioorg Med Chem Lett, 2020).

≈ marks a conversion by molar mass, not a printed value. Calls of active or inactive are those of the source. The rule behind the calls is not given here.

Data set [1] has as its target T1, Histone-lysine N-methyltransferase EHMT1 (Homo sapiens, UniProt Q9H9B1).
T1 sequence (Q9H9B1 whole entry): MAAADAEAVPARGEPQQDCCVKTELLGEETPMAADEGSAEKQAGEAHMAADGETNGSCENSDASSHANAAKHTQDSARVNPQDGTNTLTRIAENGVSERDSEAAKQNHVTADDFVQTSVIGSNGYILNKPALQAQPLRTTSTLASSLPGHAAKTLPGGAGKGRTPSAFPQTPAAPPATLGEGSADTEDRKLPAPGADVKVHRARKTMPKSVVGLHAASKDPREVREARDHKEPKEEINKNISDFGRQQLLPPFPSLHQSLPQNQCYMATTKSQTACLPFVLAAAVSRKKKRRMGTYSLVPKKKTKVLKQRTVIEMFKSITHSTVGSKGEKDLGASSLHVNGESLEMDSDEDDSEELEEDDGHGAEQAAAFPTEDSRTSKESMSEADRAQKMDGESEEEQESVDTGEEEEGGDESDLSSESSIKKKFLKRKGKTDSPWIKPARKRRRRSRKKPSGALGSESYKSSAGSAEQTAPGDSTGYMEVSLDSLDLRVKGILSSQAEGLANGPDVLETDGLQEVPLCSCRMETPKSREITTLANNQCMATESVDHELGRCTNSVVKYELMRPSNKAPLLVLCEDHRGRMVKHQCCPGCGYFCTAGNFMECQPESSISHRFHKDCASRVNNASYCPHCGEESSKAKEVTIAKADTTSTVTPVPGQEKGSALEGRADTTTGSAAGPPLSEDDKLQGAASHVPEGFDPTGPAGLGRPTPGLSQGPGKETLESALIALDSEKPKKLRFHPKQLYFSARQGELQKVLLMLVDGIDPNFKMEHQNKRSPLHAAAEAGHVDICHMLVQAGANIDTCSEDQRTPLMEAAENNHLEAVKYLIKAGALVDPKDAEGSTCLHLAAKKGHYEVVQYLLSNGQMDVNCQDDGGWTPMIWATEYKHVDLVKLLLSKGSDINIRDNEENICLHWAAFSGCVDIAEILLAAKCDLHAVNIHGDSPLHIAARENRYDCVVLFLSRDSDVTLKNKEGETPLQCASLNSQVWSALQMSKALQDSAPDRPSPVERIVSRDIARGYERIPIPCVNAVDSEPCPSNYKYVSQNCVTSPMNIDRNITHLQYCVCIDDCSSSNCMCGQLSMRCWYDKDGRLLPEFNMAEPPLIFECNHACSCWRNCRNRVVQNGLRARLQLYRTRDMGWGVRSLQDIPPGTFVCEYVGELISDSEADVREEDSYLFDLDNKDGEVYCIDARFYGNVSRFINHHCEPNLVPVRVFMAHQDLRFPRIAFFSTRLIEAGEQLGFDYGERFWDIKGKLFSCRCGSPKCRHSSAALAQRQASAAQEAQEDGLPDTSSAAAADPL
Nature of the data set: Inhibition of GLP (unknown origin).

The target in data set [2] is T2, Histone-lysine N-methyltransferase EHMT2 (Homo sapiens, UniProt Q96KQ7).
T2 sequence (Q96KQ7 whole entry): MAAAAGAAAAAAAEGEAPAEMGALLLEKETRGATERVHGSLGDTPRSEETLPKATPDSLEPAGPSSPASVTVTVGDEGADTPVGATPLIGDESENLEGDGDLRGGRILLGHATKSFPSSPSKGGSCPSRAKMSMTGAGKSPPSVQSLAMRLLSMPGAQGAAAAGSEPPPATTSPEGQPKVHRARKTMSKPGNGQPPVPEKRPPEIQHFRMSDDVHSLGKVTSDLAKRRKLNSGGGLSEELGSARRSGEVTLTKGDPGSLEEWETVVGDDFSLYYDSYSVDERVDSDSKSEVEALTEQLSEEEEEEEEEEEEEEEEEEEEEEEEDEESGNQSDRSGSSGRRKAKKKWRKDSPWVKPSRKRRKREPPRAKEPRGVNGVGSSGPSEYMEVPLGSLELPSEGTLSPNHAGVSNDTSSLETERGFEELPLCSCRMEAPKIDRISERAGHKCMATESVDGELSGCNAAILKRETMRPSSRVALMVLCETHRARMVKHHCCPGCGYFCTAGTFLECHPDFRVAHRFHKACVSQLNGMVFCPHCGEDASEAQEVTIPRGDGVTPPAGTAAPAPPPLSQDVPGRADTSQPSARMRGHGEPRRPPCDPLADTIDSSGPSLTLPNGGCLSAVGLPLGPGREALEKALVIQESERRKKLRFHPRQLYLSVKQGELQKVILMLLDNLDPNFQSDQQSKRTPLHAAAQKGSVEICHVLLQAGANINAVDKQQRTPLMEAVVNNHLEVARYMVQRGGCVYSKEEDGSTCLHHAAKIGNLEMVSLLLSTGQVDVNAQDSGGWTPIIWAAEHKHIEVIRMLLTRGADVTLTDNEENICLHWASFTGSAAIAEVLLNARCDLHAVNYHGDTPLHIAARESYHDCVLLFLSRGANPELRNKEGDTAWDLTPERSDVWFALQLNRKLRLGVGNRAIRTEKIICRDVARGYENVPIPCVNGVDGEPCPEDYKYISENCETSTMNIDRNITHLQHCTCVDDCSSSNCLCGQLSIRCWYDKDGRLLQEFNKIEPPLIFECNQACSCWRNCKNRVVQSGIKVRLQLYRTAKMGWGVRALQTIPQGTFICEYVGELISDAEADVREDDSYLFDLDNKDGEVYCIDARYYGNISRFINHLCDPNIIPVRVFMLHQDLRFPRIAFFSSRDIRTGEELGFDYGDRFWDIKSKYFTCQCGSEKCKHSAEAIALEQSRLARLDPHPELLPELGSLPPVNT
Nature of the data set: Inhibition G9a (unknown origin).

Data set [3] in a line: Cmax in mouse at 10 mg/kg, po. The format is ADME, organism-based. The following applies: in vivo. More on the design: route oral, dose 10 mg/kg.
A short description of data set [4]: Volume of distribution at steady state in mouse at 1 mg/kg, iv. The format is ADME, organism-based. The following applies: in vivo, read-out: Vdss.
A short description of data set [5]: Aqueous solubility of the compound in pH 1.2 JP1 fluid. It counts as physicochemical.
Data set [6] can be described thus: Tmax in mouse at 10 mg/kg, po. It counts as ADME, organism-based. The following applies: in vivo.
Data set [7] is described as follows: AUC (0 to infinity) in mouse at 1 mg/kg, iv. The format is ADME, organism-based. Also on record: time infinity, route intravenous, dose 1 mg/kg. The following applies: in vivo.
The nature of data set [8]: Half-life in mouse at 1 mg/kg, iv. The following applies: in vivo. It counts as ADME, organism-based.
Another data set has as its target CYP3A4 (Homo sapiens, UniProt P08684). Nature of the data set: Mechanism based inhibition of CYP3A4 in human liver microsome assessed as remaining percentage at 100 uM in presence of substrate ACN preincubated 30 mins followed by substrate addition relative to control. The format is ADME. Conditions: liver microsomes, probe ACN (so in the source), read-out: Activity.

A short description of data set [9]: Lipophilicity, log D of compound. The format is physicochemical. Conditions: octanol/water.
Data set [10] is described as follows: AUC (0 to infinity) in mouse at 10 mg/kg, po. Conditions: in vivo. Also on record: time infinity, route oral, dose 10 mg/kg. The format is ADME, organism-based.
Data set [11] in a line: Apparent permeability in MDCK cells. The following applies: dog. The format is ADME, cell-based, Canis lupus familiaris.
A short description of data set [12]: Metabolic stability in monkey liver microsomes assessed as compound remaining at 0.5 mg/mL incubated for 0.5 hrs. It counts as ADME, Macaca mulatta, Microsome. The following applies: rhesus monkey, read-out: Stabilty.
The nature of data set [13]: Intrinsic clearance in mouse at 1 mg/kg, iv. Conditions: in vivo. The format is ADME, organism-based.
A further data set has as its target hERG (KCNH2) (Homo sapiens, UniProt Q12809). Nature of the data set: Inhibition of human ERG at 10 uM relative to control.
The nature of data set [14]: Aqueous solubility of the compound in pH 6.8 JP2 fluid. It counts as physicochemical.
Data set [15] in a line: Metabolic stability in human liver microsomes assessed as compound remaining at 0.5 mg/mL incubated for 0.5 hrs. The format is ADME, Microsome. Conditions: read-out: Stabilty.
Data set [16] in a line: Metabolic stability in mouse liver microsomes assessed as compound remaining at 0.5 mg/mL incubated for 0.5 hrs. The format is ADME, Microsome. Conditions: read-out: Stabilty.
The nature of data set [17]: Initial plasma concentration in mouse at 1 mg/kg, iv. The format is ADME, organism-based.
A short description of data set [18]: Oral bioavailability in mouse at 10 mg/kg. It counts as ADME, organism-based. The following applies: in vivo.
For data set [19], the system named is CD34-positive (myeloid/lymphoid) cell. Nature of the data set: Inhibition of G9a methyltransferase activity in human CD34+ cells assessed as induction of fetal type gamma globin at 1 uM in presence of erythropoietin measured after 21 days by staining based method. It counts as functional. The following applies: time 21.0 day.
For data set [20] the test system is unchanged. Nature of the data set: Induction of fetal globin in human CD34+ cells assessed as switching of mRAN expression from adult beta-globin to fetal type gamma globin at 0.3 to 1 uM by qRT-PCR analysis. The format is functional, cell-based.

Sequence of hERG (KCNH2) (Q12809 whole entry): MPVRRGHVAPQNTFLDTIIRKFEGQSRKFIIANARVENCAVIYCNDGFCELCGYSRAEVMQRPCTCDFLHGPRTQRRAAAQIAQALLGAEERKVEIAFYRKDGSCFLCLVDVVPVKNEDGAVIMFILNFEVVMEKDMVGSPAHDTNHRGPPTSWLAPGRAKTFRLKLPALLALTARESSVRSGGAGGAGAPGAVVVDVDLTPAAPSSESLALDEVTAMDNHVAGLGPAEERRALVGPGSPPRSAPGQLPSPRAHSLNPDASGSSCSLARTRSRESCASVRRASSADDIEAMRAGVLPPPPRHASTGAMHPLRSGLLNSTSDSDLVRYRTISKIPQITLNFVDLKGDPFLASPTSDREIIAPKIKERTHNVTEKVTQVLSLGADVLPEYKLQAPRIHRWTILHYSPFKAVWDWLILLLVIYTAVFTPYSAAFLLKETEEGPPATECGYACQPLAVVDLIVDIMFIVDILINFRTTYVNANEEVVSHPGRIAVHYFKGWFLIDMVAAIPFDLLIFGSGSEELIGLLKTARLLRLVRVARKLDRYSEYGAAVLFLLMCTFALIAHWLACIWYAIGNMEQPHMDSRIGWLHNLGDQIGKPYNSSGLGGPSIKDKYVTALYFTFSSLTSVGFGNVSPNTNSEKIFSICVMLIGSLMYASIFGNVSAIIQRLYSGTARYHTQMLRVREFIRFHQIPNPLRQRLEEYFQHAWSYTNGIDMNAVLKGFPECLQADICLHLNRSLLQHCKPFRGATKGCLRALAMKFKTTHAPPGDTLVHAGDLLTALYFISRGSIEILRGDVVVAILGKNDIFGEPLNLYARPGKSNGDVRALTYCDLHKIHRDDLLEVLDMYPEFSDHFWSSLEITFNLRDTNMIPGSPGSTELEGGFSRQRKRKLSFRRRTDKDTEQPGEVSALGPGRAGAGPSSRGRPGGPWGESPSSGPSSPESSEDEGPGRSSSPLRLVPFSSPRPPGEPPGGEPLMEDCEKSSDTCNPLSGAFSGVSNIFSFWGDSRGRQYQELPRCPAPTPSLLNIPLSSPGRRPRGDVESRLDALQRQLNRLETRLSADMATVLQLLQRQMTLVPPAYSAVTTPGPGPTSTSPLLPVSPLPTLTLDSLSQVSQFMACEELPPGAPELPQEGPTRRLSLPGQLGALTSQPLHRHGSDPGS
Sequence of CYP3A4 (P08684 whole entry): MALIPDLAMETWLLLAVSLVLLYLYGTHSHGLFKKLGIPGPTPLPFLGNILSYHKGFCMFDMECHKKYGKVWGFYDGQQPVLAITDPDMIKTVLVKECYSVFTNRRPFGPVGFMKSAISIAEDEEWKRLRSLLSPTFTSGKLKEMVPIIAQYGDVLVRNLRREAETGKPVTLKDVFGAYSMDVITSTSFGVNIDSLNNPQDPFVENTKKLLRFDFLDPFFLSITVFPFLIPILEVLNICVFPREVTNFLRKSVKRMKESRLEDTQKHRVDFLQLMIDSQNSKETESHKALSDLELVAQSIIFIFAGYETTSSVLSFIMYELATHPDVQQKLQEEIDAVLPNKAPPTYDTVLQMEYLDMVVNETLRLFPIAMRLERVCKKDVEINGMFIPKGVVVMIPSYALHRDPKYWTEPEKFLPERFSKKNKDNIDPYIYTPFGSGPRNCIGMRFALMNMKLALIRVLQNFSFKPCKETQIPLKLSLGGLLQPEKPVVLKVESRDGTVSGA

As to `CNc1cc(C)nc(Nc2ccc(OC)c(C3=CCN(C)C3)c2)n1`, the IC50 was 2.77 µM in data set [1] and 1.49 µM in data set [2].

Turning to `CNc1cc(C)nc(Nc2ccc(Cl)c(C3=CCNCCC3)c2)n1`, the figures for the IC50 in data set [1] and in data set [2] were 0.0271 µM and 0.00632 µM, respectively.

In the case of `CNc1cc(C)nc(Nc2ccc(OC)c(C3=CCCNCC3)c2)n1`, the results for the IC50 in [1] and in [2] were 0.479 µM and 0.0833 µM, respectively.

Consider `CNc1cc(C)nc(Nc2ccc(OC)c(N3CCN(C)CC3)c2)n1`, for which, in data set [2], the IC50 is above 5 µM.

In the case of `CNc1cc(C)nc(Nc2ccc(OC)c(C3=CCN(CCO)CCC3)c2)n1`, the IC50 in data set [1] is 1.59 µM; in [2], 0.213 µM.

For the compound `CNc1cc(C)nc(Nc2ccc(OC)c(C3CCCNCC3)c2)n1` (racemic), the IC50 in data set [1] came to 0.342 µM; in data set [2], 0.0282 µM.

In the case of `CNc1cc(C)nc(Nc2ccc(OC)c(C3=CCCN(C)C3)c2)n1`, the IC50 in [1] was 0.864 µM; in data set [2], 0.451 µM.

In the case of `CNc1cc(C)nc(Nc2ccc(OC)c(C3CCN(C)CC3)c2)n1`, in data set [2], the IC50 was 0.588 µM.

In data set [1], `CNc1cc(C)nc(Nc2ccc(OC)c(C3=CCN(C)CCC3)c2)n1` showed an IC50 of 0.0741 µM. Further, the Cmax in data set [3] was found to be 0.21 µM. In data set [4], the Vd stood at 14.9 L/kg. The solubility in data set [5] was 0.71 mg/mL (≈ 2010 µM); in [14] it was 0.36 mg/mL (≈ 1020 µM). Further, the Tmax in data set [6] is 0.63 h. For the same compound, the AUC(0-inf) turned out to be 1200 nM·h in data set [7] and 3140 nM·h in data set [10]. For the same compound, the half-life in data set [8] was 5.6 h. For the same compound, the activity at 30 min, 100 µM at CYP3A4 is 87.3%. In addition, the logD in data set [9] was 1.3. Further, the Papp in [11] turned out to be 84 nm/s. Moreover, the remaining at 0.5 h stood at 2% in data set [12], 76% in [15] and 23% in data set [16]. This compound came in with a CL in data set [13] of 2.32 L/h/kg. The compound also showed an inhibition at 10 µM against hERG (KCNH2) of 17%. The compound further returned a C0 in [17] of 0.22 µM. Moreover, in data set [18], the bioavailability amounted to 26%.

As to `CNc1cc(C)nc(Nc2ccc(OC)c(C3=CCN(C4CCC4)CCC3)c2)n1`, the IC50 was 1.07 µM in [1] and 0.145 µM in data set [2].

Consider `CNc1cc(C)nc(Nc2ccc(OC(F)F)c(C3=CCNCCC3)c2)n1`, for which the figures for the IC50 in data set [1] and in data set [2] were 0.0147 µM and 0.00325 µM, respectively.

Turning to `CNc1cc(C)nc(Nc2ccc(C)c(C3=CCNCCC3)c2)n1`, the IC50 turned out to be 0.109 µM in data set [1] and 0.0142 µM in data set [2].

Regarding `CNc1cc(C)nc(Nc2ccc(OC)c(C3=CCN(C)CC3)c2)n1`, the IC50 in data set [1] is 0.277 µM; in [2], 0.0929 µM.

`CNc1cc(C)nc(Nc2ccc(OC(F)(F)F)c(C3=CCNCCC3)c2)n1`: the IC50 in data set [1] was 3.8 µM; in data set [2] it was 0.853 µM.

For the compound `COc1cc2c(NC3CCN(C(C)C)CC3)nc(C3CCCCC3)nc2cc1OCCCN1CCCC1`, the Activity entry in data set [19] was “Active”.

As to `CCN1CC=C(c2cc(Nc3nc(C)cc(NC)n3)ccc2OC)CCC1`, the IC50 in [1] is 0.0441 µM; in data set [2] it was 0.0105 µM.

Turning to `COc1cc2c(cc1OCCCN1CCCC1)N=C(N)C21CCC1`, the Activity entry in data set [20] was “Active”.

Consider `CNc1cc(C)nc(Nc2ccc(C#N)c(C3=CCNCCC3)c2)n1`, for which the IC50 in data set [1] worked out at 0.0432 µM; in data set [2], 0.0152 µM.

With `CNc1cc(C)nc(Nc2ccc(OC)c(C3=CCNCC3)c2)n1`, the IC50 is 1.16 µM in data set [1] and 0.225 µM in [2].
